Common to all, as to assay type: cell-based, human
In experiment [1] the test system is p-ERK in NCI-H441 cells (KRAS G12V mutation). In words: Cell p-ERK assay (HTRF) in NCI-H441 cells. As to conditions: NCI-H441 cells, 3 h compound incubation, HTRF p-ERK T202/Y204, read-out: H441 p-ERK IC50. In outline:
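Phospho-ERK inhibition measured by HTRF after a 3 h compound exposure (0.1% DMSO) in overnight-seeded cells; IC50 derived from dose-response fitting.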
(TR-FRET usually uses a lanthanide donor and a delayed reading to cut background.)

Experiment [2] concerns AsPC-1 cells (KRAS G12D mutation). In words: 3D cell proliferation assay (CellTiter Glo-3D), AsPC-1. As to conditions: medium with 2% FBS, read-out: AsPC-1 AP IC50. The source says:
MIA PaCa-2 cells were purchased from ATCC, Cat. No. CRL-1420; AsPC-1 cells were purchased from ATCC, Cat. No. CRL-1682; NCI-H441 cells were purchased from ATCC, Cat. No. HTB-174: NCI-H1975 cells were purchased from ATCC. Cat. No. CRL-5908; DMEM medium was purchased from Gibco, Cat. No. 11995-065: RPMI-1040 medium was purchased from Gibco. Cat. No. H 18754093; FBS was purchased from Gibco, Cat. No. 10099-141C. penicillin, streptomycin double-antibiotic solution (PS) was purchased from Gibco, Cat. No. 15140-122; Horse serum was purchased from Gibco. Cat. No. 16050130: trypsin (containing EDTA) was purchased from Gibco, Cat. No. 25200-072; DMSO was purchased from VWRAMRESCO, Cat. No. 0231-500ML; 384-well cell culture plates were purchased from Corning, Cat. No. 3830; white-bottomed, opaque 384-well assay plates were purchased from Corning, Cat. No. 3570. CellTiter Glo-3D) kit was purchased from Promega. Cat. No. G9683; cell counter was purchased from CHEMOMETEC, model: NC-200: microplate reader was purchased from PerkinElmer, model: EnVision.
MIA PaCa-2, a human pancreatic cancer cell strain endogenously containing a KRAS^G12C mutation, was cultured in a complete medium containing DMEM+10% FBS+2.5% Horse serum+1% PS. AsPC-1, a human pancreatic cancer cell strain endogenously containing a […] mutation, was cultured in a complete medium containing RPMI-1640+10% FBS+1% PS. NCI-H441 cells, a human lung cancer cell strain endogenously containing a […] mutation, were cultured in a complete medium containing RPMI-1640+10% FBS+1% PS. NCI-H1975, a KRAS wild-type human lung cancer cell strain whose cell proliferation depends on KRAS activity, was cultured in a complete medium containing RPMI-1640+10% FBS+1% PS.
The cells were digested with trypsin (containing EDTA), collected in their respective low-serum complete media containing 2% FBS (for MIA Paca-2 cell culture: DMEM+2% FBS+0.5% Horse serum+1% PS), and counted. After the cell density was adjusted as required, 200 MIA PaCa-2 cells, 800 AsPC-1 cells, 800 NCI-H441 cells, or 400 NCI-H1975 cells per well were seeded into a 384-well cell culture plate, with the volume of the medium in each well being 45 μL. The cell culture plate was incubated in an incubator at 37° C. with 5% CO2, overnight. A series of 3.16-fold gradient dilutions of a 1000× compound stock solution were prepared with DMSO, and then diluted 100-fold with the complete medium containing 2% FBS described above to give 10- compound stock solutions. On the day after cell seeding, 5 μL of the 10- compound stock solution was added to each cell culture well. As a result, the final concentration of the compound in the cell culture well became 1×, and the DMSO content in the well was 0.1%. In addition to the compound-treated wells described above, cell-containing DMSO control wells (with 5 μL of the complete medium containing 1% DMSO added to each well) and cell-free medium control wells (containing 50 μL of the complete medium with 2% FBS) were also set. The culture plate was incubated in an incubator at 37° C. with 5% CO2 for another 5 days, and then 30 μL of CellTiter-Glo working solution was added to each well. The mixture was well mixed, incubated for 30 min, left to stand at room temperature for 30 min, and then transferred to a white-bottomed, opaque 384-well assay plate at 40 μL/well. The chemiluminescence values (RLU) were measured using a microplate reader, and the cell proliferation inhibition rate for each well was calculated: IR (%)=(RLUDMSO—RLUcompound)/(RLUDMSO−RLUblank)×100%, where RLUDMSO is the average RLU signal value from the DMSO control well samples, RLUblank is the average RLU signal value from the medium control well samples, and RLUcompound is the RLU signal value from the compound-treated well samples. […]
In general terms: Cellular ATP, detected with luciferase, serves as a proxy for viable cell number.

Experiment [3] concerns NCI-H441 cells. Nature of the experiment: 3D cell proliferation assay (CellTiter Glo-3D), NCI-H441. As to conditions: medium with 2% FBS, read-out: H441 AP IC50. In outline:
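Five-day treatment of NCI-H441 or AsPC-1 cells (800/well, 2% FBS RPMI-1640, 0.1% DMSO) with graded compound concentrations; ATP content by CellTiter-Glo 3D; IC50 fitted.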

[4] abbreviates: 3D cell proliferation (CellTiter Glo-3D).
Setting [5] is: Homo sapiens, ASPC1, 3D cell proliferation (CellTiter Glo-3D).
The mark [6] stands for this setting: Homo sapiens, NCI-H441, 3D cell proliferation (CellTiter Glo-3D).

Structures are written as SMILES. Read-outs that look alike come from different tables or passages of the source.

Broadly, the IC50 is the concentration that gives 50% inhibition. For the molecule `CCn1c(-c2cc(C#CCN3CCC(=O)N(C)CC3)cnc2[C@H](C)OC)c2c3cc(ccc31)-c1csc(n1)C[C@H](Nc1nnc3cc(C)ccn13)C(=O)N1CCC[C@H](N1)C(=O)OCC(C)(C)C2` (atropisomer, axis not shown; (Ra)) [Compound Z957, (6^3S,4S2)-1-(5-(3-(4-methyl-1,4-diazepan-5-one-1-yl)prop-1-yn-1-yl)-(Ra)-2-((S)-1-methoxyethyl)pyridin-3-yl)-1^1-ethyl-10,10-dimethyl-4-((7-methyl-[,2,4]triazolo[4,3-a]pyridin-3-yl)amino)-6^1,6^2,6^3,6^4,6^5,6^6-hexahydro-1^1H-8-oxa-2(4,2)-thiazola-1(5,3)-indola-6(1,3)-pyridazinacycloundecaphane-5,7-dione], the IC50 in experiment [1] came out at 2.63 nM; in experiment [2] (setting [4]), 6.69 nM; in experiment [3] (setting [4]), 2.47 nM.
As to `CCn1c(-c2cc(C(C)N3CCN(C)CC3)cnc2[C@H](C)OC)c2c3cc(ccc31)-c1csc(n1)C[C@H](NC(=O)[C@H]1[C@H](C)[C@@H]1C)C(=O)N1CCC[C@H](N1)C(=O)OCC1(CC1)C2` (stereo partly drawn) [Compound Z456], the IC50 in experiment [1] amounted to 61.3 nM; in experiment [2] (setting [4]), 151 nM; in experiment [3] (setting [4]) it was 125 nM.
Consider `CCn1c(-c2cccnc2[C@H](C)OC)c2c3cc(ccc31)-c1csc(n1)C[C@H](NC(=O)C(C)(C)F)C(=O)N1CCC[C@H](N1)C(=O)OCC(C)(C)C2` (single isomer, unassigned) [Compound Z1], for which the figures for the 50% inhibitory concentration (IC50) in experiment [2] (setting [5]) and in experiment [3] (setting [6]) were 565 nM and 446 nM, respectively.
With `CCn1c(-c2cc(C#CCN3CC(C#N)C3)cnc2[C@H](C)OC)c2c3cc(ccc31)-c1csc(n1)C[C@H](Nc1nnc3cc(C)ccn13)C(=O)N1CCC[C@H](N1)C(=O)OCC(C)(C)C2` (atropisomer, axis not shown; (Ra)) [Compound Z974, 1-(3-(5-((6^3S,4S,Z)-1^1-ethyl-10,10-dimethyl-4-((7-methyl-[1,2,4]triazolo[4,3-a]pyridin-3-yl)amino)-5,7-dioxo-6^1,6^2,6^3,6^4,6^5,6^6-hexahydro-1^1H-8-oxa-2(4,2)-thiazola-1(5,3)-indola-6(1,3)-pyridazinacycloundecaphane-1^2-yl)-6-(Ra)—((S)-1-methoxyethyl)pyridin-3-yl)prop-2-yn-1-yl)azetidine-3-carbonitrile], the IC50 in experiment [1] (Homo sapiens, NCI-H441, 3 h) came to 2.12 nM; in experiment [2] (setting [5]), 5.6 nM; in experiment [3] (setting [6]), 3.46 nM.
Regarding `CCn1c(-c2cc(C#CCN3CCOC[C@@H](O)C3)cnc2[C@H](C)OC)c2c3cc(ccc31)-c1csc(n1)C[C@H](Nc1nnc3cc(C)ccn13)C(=O)N1CCC[C@H](N1)C(=O)OCC(C)(C)C2` (atropisomer, axis not shown; (Ra)) [Compound Z966, (6^3S,4S,Z)-1^1-ethyl-(Ra)-1^2-(5-(3-((S)-6-hydroxy-1,4-oxazepan-4-yl)prop-1-yn-1-yl)-2-((S)-1-methoxyethyl)pyridin-3-yl)-10,10-dimethyl-4-((7-methyl-[1,2,4]triazolo[4,3-a]pyridin-3-yl)amino)-6^1,6^2,6^3,6^4,6^5,6^6-hexahydro-1^1H-8-oxa-2(4,2)-thiazola-1(5,3)-indola-6(1,3)-pyridazinacycloundecaphane-5,7-dione], the IC50 came to 9.41 nM in experiment [2] (setting [5]) and 4.91 nM in experiment [3] (setting [6]).
In the case of `CCn1c(-c2cc(C#CCN3CCC(F)(F)CC3)cnc2[C@H](C)OC)c2c3cc(ccc31)-c1csc(n1)C[C@H](Nc1nnc3cc(C)ccn13)C(=O)N1CCC[C@H](N1)C(=O)OCC(C)(C)C2` (atropisomer, axis not shown; (Ra)) [Compound Z958, (6^3S,4S,Z)—(Ra)-1-(5-(3-(4,4-difluoropiperidin-1-yl)prop-1-yn-1-yl)-2-((S)-1-methoxyethyl)pyridin-3-yl)-1^1-ethyl-10,10-dimethyl-4-((7-methyl-[1,2,4]triazolo[4,3-a]pyridin-3-yl)amino)-6^1,6^2,6^3,6^4,6^5,6^6-hexahydro-1^1H-8-oxa-2(4,2)-thiazola-1(5,3)-indola-6(1,3)-pyridazinacycloundecaphane-5,7-dione], the IC50 in experiment [1] (Homo sapiens, NCI-H441, 3 h) stood at 5.78 nM; in experiment [2] (setting [5]), 6.12 nM; in experiment [3] (setting [6]), 4.93 nM.
`CO[C@@H](C)c1ncc(C#CCN2CCS(=O)(=O)CC2)cc1-c1c2c3cc(ccc3n1C(C)C)-c1csc(n1)C[C@H](Nc1nnc3cc(C)ccn13)C(=O)N1CCC[C@H](N1)C(=O)OCC(C)(C)C2` (atropisomer, axis not shown; (Ra)) [Compound Z913-1, (6^3S,4S,Z)—(Ra)-1^1-(5-(3-(1,1-dioxidothiomorpholino)prop-1-yn-1-yl)-2-((S)-1-methoxyethyl)pyridin-3-yl)-1′-isopropyl-10,10-dimethyl-4-((7-methyl-[1,2,4]triazolo[4,3-a]pyridin-3-yl)amino)-6^1,6^2,6^3,6^4,6^5,6^6-hexahydro-1^1H-8-oxa-2(4,2)-thiazola-1(5,3)-indola-6(1.3)-pyridazinacycloundecaphane-5,7-dione]: the results for the 50% inhibitory concentration (IC50) in experiment [2] (setting [5]) and in experiment [3] (setting [6]) were 8.88 nM and 4.18 nM, respectively.
Consider `CCn1c(-c2cc(C#CCN3CCCOCC3)cnc2[C@H](C)OC)c2c3cc(ccc31)-c1csc(n1)C[C@H](Nc1nnc3cc(C)ccn13)C(=O)N1CCC[C@H](N1)C(=O)OCC(C)(C)C2` [Compound Z955, (6^3S,4S2)-1^2-(5-(3-(1,4-oxazepan-4-yl)prop-1-yn-1-yl)-2-((S)-1-methoxyethyl)pyridin-3-yl)-1^1-ethyl-10,10-dimethyl-4-((7-methyl-[1,2,4]triazolo[4,3-a]pyridin-3-yl)amino)-6^1,6^2,6^3,6^4,6^5,6^6-hexahydro-1^1H-8-oxa-2(4,2)-thiazola-1(5,3)-indola-6(1,3)-pyridazinacycloundecaphane-5J7-dione], for which the IC50 is 2.6 nM in experiment [1] (Homo sapiens, NCI-H441, 3 h); 4.82 nM in experiment [2] (setting [5]); 2.96 nM in experiment [3] (setting [6]).

The values are drawn from patent US20260234165A1, “MACROCYCLIC COMPOUNDS, PREPARATION METHOD THEREFOR, AND USE THEREOF” (GENFLEET THERAPEUTICS (SHANGHAI) INC., priority 2004, published 2026).
